# System: MC-38 tumors
# Assay: Anti-tumor efficacy of Compound 1 in the subcutaneous MC-38 model: schedule comparison (Example 3)
# Type: in vivo, Mus musculus
# Conditions: for MST: endpoint tumor volume 2000 mm^3
# Experimental: Female C57BL/6 mice were inoculated subcutaneously at right flank with MC-38 cells for tumor development. Six days after tumor inoculation, 64 mice with tumor size ranging from 50-100 mm^3 (average tumor size 71 mm^3) were selected and assigned into 8 groups using stratified randomization with 8 mice per group based upon their tumor volumes. The treatments were started from the day of randomization (defined as D0), Group 1 was treated with Vehicle (Tween 80:Ethanol:Saline—5:5:90 v/v/v), S.C. QD*20 days, Group 2 was treated with Compound 1 at 1 mpk S.C. QD*28 days, Group 3 was treated with Compound 1 at 0.5 mpk S.C. QD*28 days, Group 4 was treated with Compound 1 at 1.4 mpk S.C. 5-days ON 2-days OFF×4 cycles, Group 5 was treated with Compound 1 at 0.7 mpk S.C. 5-days ON 2-days OFF×4 cycles, Group 6 was treated with Compound 1 at 3 mpk qd×5, followed by 1 mpk qd×23, S.C. QD, Group 7 was treated with Compound 1 at 1.5 mpk qd×5, followed by 0.5 mpk qd×23, S.C. QD and Group 8 was treated with Compound 1 at 1.4 mpk 10-days ON 4-days OFF×2 cycles, S.C.
# Species: Mus musculus; Strain: C57BL/6; Age: 6-8 weeks; Sex: female; Body weight (at treatment start): 16-20 g.
# The MC-38 tumor cells were maintained in vitro as a monolayer culture in DMEM medium supplemented with 10% heat inactivated fetal bovine serum and 100 μg/mL penicillin streptomycin at 37° C. in an atmosphere of 5% CO2 in air. The tumor cells were routinely subcultured twice weekly by trypsin-EDTA treatment. The cells growing to a confluency around 70%-80% were harvested and counted for tumor inoculation. The cultured MC-38 were harvested, re-suspended in base medium at a density of 1×10^7 cells/mL with viability>90%. Each mouse was inoculated subcutaneously at the right flank with 1×10^6 cells in 0.1 ml base medium for tumor development.
# The treatments were started on day 6 after tumor inoculation when the tumor size reached 50-100 mm^3 (average tumor size 71 mm^3). Each group consisted of 8 tumor-bearing mice. The testing article was administrated to the mice at a dosing volume of 10 mL/Kg according to the predetermined regimen as shown in Table 3-1.
# Tumor sizes were measured three times a week in two dimensions using a caliper, and the volume expressed in mm^3 using the formula: V=0.5 a×b^2 where a and b are the long and short diameters of the tumor, respectively. The tumor sizes were then used for the calculations of both tumor growth inhibition (TGI) and T/C values.
# TGI is calculated for each group using the formula: […]
# TVTreatment_DayN is the average tumor volume of a treatment group on a given day, TVTreatment_Day0 is the average tumor volume of the treatment group on the first day of treatment, TVVehicle_DayN is the average tumor volume of the vehicle control group on a given day, and TVVehicle_Day0 is the average tumor volume of the vehicle group on the first day of treatment.
# The T/C value (in percent) is an indication of antitumor effectiveness, T/C (%)=RTVTreatment/RTVControl×100% (RTVTreatment: the mean RTV of the treatment group; RTVControl: the mean RTV of the vehicle treated group). RTV (relative tumor volume)=TVDayN/TVDay0. TVDayN and TVDay0 is the tumor volume on day N and Day 0 respectively. T/C (%)≤42% is considered as significant antitumor activity and <10% is considered as highly significant antitumor activity by the National Cancer Institute criteria.
# Relative change of body weight (RCBW) of each mouse was calculated according to the following formula: […]
# Animal survival curve: When an individual animal reached to the termination endpoint (TV>2000 mm^3), the mouse was euthanized. The time from treatment initiation to the termination was deemed as its survival time. Survival curve was plotted by Kaplan-Meier method. Median survival time (MST) was calculated for each group. Increase of life span (ILS) was calculated according to the following formula: […]
# ILS (%)>25% is considered as a biologically significant survival benefit. […]
# [1] = 0.7 mpk S.C. 5-days ON 2-days OFF
# [2] = 1.4 mpk days ON 2-days OFF x 4 cycles
# [3] = 1.5 mpk qdx5, followed by 0.5 mpk qdx23
# [4] = 3 mpk qdx5, followed by 1 mpk qdx23
# [5] = Day 13, 0.7 mpk S.C. 5-days ON 2-days OFF
# [6] = Day 13, 1.4 mpk 10-days ON 4-days OFF
# [7] = Day 13, 1.4 mpk days ON 2-days OFF x 4 cycles
# [8] = Day 13, 1.5 mpk qdx5, followed by 0.5 mpk qdx23
# [9] = Day 13, 3 mpk qdx5, followed by 1 mpk qdx23
smiles,measurement,setting,value
"CC(=O)N[C@@H](Cc1c[nH]c2ccccc12)C(=O)N[C@@H](CCC(=O)C=[N+]=[N-])C(=O)OC(C)C [Compound 1, Isopropyl (S)-2-((S)-2-acetamido-3-(1H-indol-3-yl)propanamido)-6-diazo-5-oxohexanoate]",ILS,0.5 mpk QD*28 days,126%
same,RTV at day 13,0.5 mpk QD*28 days,0 ± 0
same,MST,0.5 mpk QD*28 days,43 days
same,ILS,[1],208%
same,RTV at day 13,[1],0 ± 0
same,MST,[1],58.5 days
same,ILS,1 mpk QD*28 days,126%
same,RTV at day 13,1 mpk QD*28 days,0 ± 0
same,MST,1 mpk QD*28 days,43 days
same,ILS,1.4 mpk 10-days ON 4-days OFF,121%
same,RTV at day 13,1.4 mpk 10-days ON 4-days OFF,0 ± 0
same,MST,1.4 mpk 10-days ON 4-days OFF,42 days
same,ILS,[2],153%
same,RTV at day 13,[2],0 ± 0
same,MST,[2],48 days
same,ILS,[3],121%
same,RTV at day 13,[3],0 ± 0
same,MST,[3],42 days
same,ILS,[4],134%
same,RTV at day 13,[4],0 ± 0
same,MST,[4],44.5 days
same,Tumor volume (Mean ± SEM),"Day 11, Group 2: 1 mg/kg qdx28, sc",15 ± 3 mm^3
same,Tumor volume (Mean ± SEM),"Day 11, Group 3: 0.5 mg/kg qdx28, sc",29 ± 3 mm^3
same,Tumor volume (Mean ± SEM),"Day 11, Group 4: 1.4 mg/kg 5-days ON 2-days OFF x 4 cycles, sc",14 ± 2 mm^3
same,Tumor volume (Mean ± SEM),"Day 11, Group 5: 0.7 mg/kg 5-days ON 2-days OFF x 4 cycles, sc",20 ± 4 mm^3
same,Tumor volume (Mean ± SEM),"Day 11, Group 6: 3 mpk qdx5 followed by 1 mpk qdx23, sc",24 ± 2 mm^3
same,Tumor volume (Mean ± SEM),"Day 11, Group 7: 1.5 mpk qdx5 followed by 0.5 mpk qdx23, sc",21 ± 2 mm^3
same,Tumor volume (Mean ± SEM),"Day 11, Group 8: 1.4 mg/kg 10-days ON 4-days OFF x 2 cycles, sc",28 ± 4 mm^3
same,T/C,"Day 13, 0.5 mpk QD*28 days",0%
same,TGI,"Day 13, 0.5 mpk QD*28 days",103.48%
same,T/C,[5],0%
same,TGI,[5],104.42%
same,T/C,"Day 13, 1 mpk QD*28 days",0%
same,TGI,"Day 13, 1 mpk QD*28 days",104.87%
same,T/C,[6],0%
same,TGI,[6],104.10%
same,T/C,[7],0%
same,TGI,[7],104.49%
same,T/C,[8],0%
same,TGI,[8],104.24%
same,T/C,[9],0%
same,TGI,[9],104.29%
same,Tumor volume (Mean ± SEM),"Day 13, Group 2: 1 mg/kg qdx28, sc, 1 mg/kg",5 ± 2 mm^3
same,Tumor volume (Mean ± SEM),"Day 13, Group 3: 0.5 mg/kg qdx28, sc, 0.5 mg/kg",24 ± 2 mm^3
same,Tumor volume (Mean ± SEM),"Day 13, Group 4: 1.4 mg/kg 5-days ON 2-days OFF x 4 cycles, sc, 1.4 mg/kg",11 ± 3 mm^3
same,Tumor volume (Mean ± SEM),"Day 13, Group 5: 0.7 mg/kg 5-days ON 2-days OFF x 4 cycles, sc, 0.7 mg/kg",13 ± 4 mm^3
same,Tumor volume (Mean ± SEM),"Day 13, Group 6: 3 mpk qdx5 followed by 1 mpk qdx23, sc",14 ± 3 mm^3
same,Tumor volume (Mean ± SEM),"Day 13, Group 7: 1.5 mpk qdx5 followed by 0.5 mpk qdx23, sc",15 ± 3 mm^3
same,Tumor volume (Mean ± SEM),"Day 13, Group 8: 1.4 mg/kg 10-days ON 4-days OFF x 2 cycles, sc, 1.4 mg/kg",17 ± 4 mm^3
same,Tumor volume (Mean ± SEM),"Day 15, Group 2: 1 mg/kg qdx28, sc",1 ± 1 mm^3
same,Tumor volume (Mean ± SEM),"Day 15, Group 3: 0.5 mg/kg qdx28, sc",17 ± 3 mm^3
same,Tumor volume (Mean ± SEM),"Day 15, Group 4: 1.4 mg/kg 5-days ON 2-days OFF x 4 cycles, sc",2 ± 1 mm^3
same,Tumor volume (Mean ± SEM),"Day 15, Group 5: 0.7 mg/kg 5-days ON 2-days OFF x 4 cycles, sc",6 ± 3 mm^3
same,Tumor volume (Mean ± SEM),"Day 15, Group 6: 3 mpk qdx5 followed by 1 mpk qdx23, sc",6 ± 2 mm^3
same,Tumor volume (Mean ± SEM),"Day 15, Group 7: 1.5 mpk qdx5 followed by 0.5 mpk qdx23, sc",9 ± 2 mm^3
same,Tumor volume (Mean ± SEM),"Day 15, Group 8: 1.4 mg/kg 10-days ON 4-days OFF x 2 cycles, sc",14 ± 3 mm^3
same,Tumor volume (Mean ± SEM),"Day 18, Group 2: 1 mg/kg qdx28, sc",1 ± 0 mm^3
same,Tumor volume (Mean ± SEM),"Day 18, Group 3: 0.5 mg/kg qdx28, sc",10 ± 2 mm^3
same,Tumor volume (Mean ± SEM),"Day 18, Group 4: 1.4 mg/kg 5-days ON 2-days OFF x 4 cycles, sc",0 ± 0 mm^3
same,Tumor volume (Mean ± SEM),"Day 18, Group 5: 0.7 mg/kg 5-days ON 2-days OFF x 4 cycles, sc",3 ± 1 mm^3
same,Tumor volume (Mean ± SEM),"Day 18, Group 6: 3 mpk qdx5 followed by 1 mpk qdx23, sc",7 ± 3 mm^3
same,Tumor volume (Mean ± SEM),"Day 18, Group 7: 1.5 mpk qdx5 followed by 0.5 mpk qdx23, sc",8 ± 2 mm^3
same,Tumor volume (Mean ± SEM),"Day 18, Group 8: 1.4 mg/kg 10-days ON 4-days OFF x 2 cycles, sc",8 ± 3 mm^3
same,Tumor volume (Mean ± SEM),"Day 20, Group 2: 1 mg/kg qdx28, sc",1 ± 0 mm^3
